These results are taken from patent publication US20060189650A1, “Novel piperidine derivatives as modulators of chemokine receptor ccr5” (priority 2002, published 2006).

By IC50 is commonly meant the midpoint of a concentration-inhibition curve.

Molecules are shown by their SMILES.

Sequence of recombinant human CCR5 receptor (P51681 whole entry): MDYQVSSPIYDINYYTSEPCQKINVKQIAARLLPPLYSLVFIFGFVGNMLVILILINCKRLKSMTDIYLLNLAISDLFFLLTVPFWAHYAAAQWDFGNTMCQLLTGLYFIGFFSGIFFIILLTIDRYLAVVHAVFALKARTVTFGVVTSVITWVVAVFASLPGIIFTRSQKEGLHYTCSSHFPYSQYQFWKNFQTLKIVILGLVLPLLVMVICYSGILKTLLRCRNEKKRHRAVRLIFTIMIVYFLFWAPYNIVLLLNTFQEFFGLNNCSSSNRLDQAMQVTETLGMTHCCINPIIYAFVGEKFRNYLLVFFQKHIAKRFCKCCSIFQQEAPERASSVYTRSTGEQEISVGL

The assay deals with recombinant human CCR5 receptor (Homo sapiens, UniProt P51681). The assay can be described thus: MIP-1α radioligand binding assay (scintillation proximity, CHO cell membranes). As to conditions: negative log (base 10) of IC50, displacement of 0.1 nM iodinated MIP-1α; average if tested more than once. Here is the method:
The ability of compounds to inhibit the binding of MIP-1α was assessed by an in vitro radioligand binding assay. Membranes were prepared from Chinese hamster ovary cells which expressed the recombinant human CCR5 receptor. These membranes were incubated with 0.1 nM iodinated MIP-1α, scintillation proximity beads and various concentrations of the compounds of the invention in 96-well plates. The amount of iodinated MIP-1α bound to the receptor was determined by scintillation counting. Competition curves were obtained for compounds and the concentration of compound which displaced 50% of bound iodinated MIP-1α was calculated (IC50).
In Table XV the results are presented as Pic50 values. A Pic50 value is the negative log (to base 10) of the IC50 result, so an IC50 of 1 μM (that is 1×10^−6M) gives a Pic50 of 6. If a compound was tested more than once then the data below is an average of the probative tests results.
(In general: Scintillation proximity formats need no separation of bound from free tracer.)
For `CS(=O)(=O)c1ccc(S(=O)(=O)CCC2CCN(CC[C@H](NC(=O)c3ccc(Cl)cc3)c3ccccc3)CC2)cc1` [Table IV Compound 2], the IC50 is 1.58 nM. On to `CS(=O)(=O)c1ccc([C@@H](CCN2CCC(CCS(=O)(=O)c3ccc(S(C)(=O)=O)cc3)CC2)c2cc(F)cc(F)c2)cc1` [Table V Compound 7, 1-{(3R)-3-(3,5-difluorophenyl)-3-[4-(methylsulfonyl)phenyl]propyl}-4-(2-{[4-(methylsulfonyl)phenyl]sulfonyl}ethyl)piperidine], for which the IC50 was 0.631 nM. For `Cn1nnc(-c2ccc(S(=O)(=O)CCC3CCN(CC[C@H](c4ccc(S(C)(=O)=O)cc4)c4cc(F)cc(F)c4)CC3)cc2)n1` [Table V Compound 19, 1-{(3R)-3-(3,5-difluorophenyl)-3-[4-(methylsulfonyl)phenyl]propyl}-4-(2-{[4-(2-methyl-2H-tetrazol-5-yl)phenyl]sulfonyl}ethyl)piperidine] the value was 2 nM.
